Values after ≈ are worked out from the molar mass of the structure shown.
How the values were obtained:
Type in all cases: functional
Pseudomonas aeruginosa [1] = assay: Antimicrobial activity against Pseudomonas aeruginosa isolate PA8119 harboring gyrA T83I and parC S87L mutant gene by Etest method
Pseudomonas aeruginosa [2] = assay: Antimicrobial activity against Pseudomonas aeruginosa isolate PA5600 harboring gyrA T83I and parC S87L mutant gene by Etest method
Pseudomonas aeruginosa [3] = assay: Antimicrobial activity against Pseudomonas aeruginosa isolate PA7461 harboring gyrA T83I and parC S87L mutant gene by Etest method
Pseudomonas aeruginosa [4] = assay: Antimicrobial activity against MexB overexpressing Pseudomonas aeruginosa isolate PA1328 harboring gyrA T83I and parC S87L mutant gene by Etest method
Pseudomonas aeruginosa [5] = assay: Antimicrobial activity against Pseudomonas aeruginosa isolate PA8721 harboring gyrA T83I and parC S87L mutant gene by Etest method
Pseudomonas aeruginosa [6] = assay: Antimicrobial activity against MexB overexpressing Pseudomonas aeruginosa isolate PA8108 harboring gyrA T83I mutant gene by Etest method
Pseudomonas aeruginosa [7] = assay: Antimicrobial activity against Pseudomonas aeruginosa isolate PA27853 by Etest method
Pseudomonas aeruginosa [8] = assay: Antimicrobial activity against MexB overexpressing Pseudomonas aeruginosa isolate PA1378 harboring gyrA T83I mutant gene by Etest method
Pseudomonas aeruginosa [9] = assay: Antimicrobial activity against Pseudomonas aeruginosa isolate PA8858 harboring gyrA T83I and parC S87L mutant gene by Etest method
Pseudomonas aeruginosa [10] = assay: Antimicrobial activity against Pseudomonas aeruginosa isolate PA5441 harboring gyrA T83I and parC S87L mutant gene by Etest method
Pseudomonas aeruginosa [11] = assay: Antimicrobial activity against Pseudomonas aeruginosa isolate PA641 parC P105T mutant gene by Etest method
Pseudomonas aeruginosa [12] = assay: Antimicrobial activity against Pseudomonas aeruginosa isolate PA9019 harboring gyrA D87G and parC S87L mutant gene by Etest method
Pseudomonas aeruginosa [13] = assay: Antimicrobial activity against MexB overexpressing Pseudomonas aeruginosa isolate PA707 harboring gyrA T83I and parC S87L mutant gene by Etest method
Pseudomonas aeruginosa [14] = assay: Antimicrobial activity against MexB overexpressing Pseudomonas aeruginosa isolate PA1327 harboring gyrA T83I and parC S87L mutant gene by Etest method
Pseudomonas aeruginosa [15] = assay: Antimicrobial activity against Pseudomonas aeruginosa isolate PA5513 harboring gyrA T83I and parC S87L mutant gene by Etest method
Pseudomonas aeruginosa [16] = assay: Antimicrobial activity against MexB overexpressing Pseudomonas aeruginosa isolate PA9087 harboring gyrA T83I mutant gene by Etest method
Pseudomonas aeruginosa [17] = assay: Antimicrobial activity against MexB overexpressing Pseudomonas aeruginosa isolate PA6218 harboring gyrA D87N mutant gene by Etest method
Pseudomonas aeruginosa [18] = assay: Antimicrobial activity against Pseudomonas aeruginosa isolate PA1166 harboring gyrA T83I and parC S87L mutant gene by Etest method
Pseudomonas aeruginosa [19] = assay: Antimicrobial activity against MexB overexpressing Pseudomonas aeruginosa isolate PA1165 harboring gyrA T83I and parC S87L mutant gene by Etest method

| Compound | MIC50 (Pseudomonas aeruginosa [1]) [µg/mL] | MIC50 (Pseudomonas aeruginosa [2]) [µg/mL] | MIC50 (Pseudomonas aeruginosa [3]) [µg/mL] | MIC50 (Pseudomonas aeruginosa [4]) [µg/mL] | MIC50 (Pseudomonas aeruginosa [5]) [µg/mL] | MIC50 (Pseudomonas aeruginosa [6]) [µg/mL] | MIC50 (Pseudomonas aeruginosa [7]) [µg/mL] | MIC50 (Pseudomonas aeruginosa [8]) [µg/mL] | MIC50 (Pseudomonas aeruginosa [9]) [µg/mL] | MIC50 (Pseudomonas aeruginosa [10]) [µg/mL] | MIC50 (Pseudomonas aeruginosa [11]) [µg/mL] | MIC50 (Pseudomonas aeruginosa [12]) [µg/mL] | MIC50 (Pseudomonas aeruginosa [13]) [µg/mL] | MIC50 (Pseudomonas aeruginosa [14]) [µg/mL] | MIC50 (Pseudomonas aeruginosa [15]) [µg/mL] | MIC50 (Pseudomonas aeruginosa [16]) [µg/mL] | MIC50 (Pseudomonas aeruginosa [17]) [µg/mL] | MIC50 (Pseudomonas aeruginosa [18]) [µg/mL] | MIC50 (Pseudomonas aeruginosa [19]) [µg/mL] | also measured |
| --- | --- | --- | --- | --- | --- | --- | --- | --- | --- | --- | --- | --- | --- | --- | --- | --- | --- | --- | --- | --- |
| COLISTIN | 1.5 | 1 | 2 | 1.5 | 1.5 | 0.25 | 1.5 | 2 | 1.5 | 1.5 | 1.5 | 1.5 | 1 | 2 | 1 | 0.38 | 3 | 1 | 1.5 | – |
| POLYMYXIN B | 1.5 | 1.5 | – | 1.5 | 1.5 | 0.25 | 1.5 | 1.5 | – | 1.5 | 1 | 1 | 0.75 | 1 | 1 | 0.5 | 1.5 | 0.75 | 1.5 | – |
| C[C@@H](O)[C@H]1C(=O)N2C(C(=O)O)=C(S[C@@H]3CN[C@H](CNS(N)(=O)=O)C3)[C@H](C)[C@H]12 [DORIPENEM] | 16 (≈ 38 µM) | 4 (≈ 9.51 µM) | 12 (≈ 28.5 µM) | 3 (≈ 7.13 µM) | – | – | 0.19 (≈ 0.452 µM) | – | 8 (≈ 19 µM) | 4 (≈ 9.51 µM) | – | – | – | 8 (≈ 19 µM) | – | 6 (≈ 14.3 µM) | – | 24 (≈ 57.1 µM) | 12 (≈ 28.5 µM) | MIC90 (Pseudomonas aeruginosa [5]): 32 µg/mL (≈ 76.1 µM); MIC90 (Pseudomonas aeruginosa [6]): > 32 µg/mL; MIC90 (Pseudomonas aeruginosa [8]): > 32 µg/mL; MIC90 (Pseudomonas aeruginosa [11]): > 32 µg/mL; MIC90 (Pseudomonas aeruginosa [12]): > 32 µg/mL; MIC90 (Pseudomonas aeruginosa [13]): > 32 µg/mL; MIC90 (Pseudomonas aeruginosa [15]): > 32 µg/mL; MIC90 (Pseudomonas aeruginosa [17]): > 32 µg/mL |

— ChEMBL document CHEMBL1240407, “Prevalence, resistance mechanisms, and susceptibility of multidrug-resistant bloodstream isolates of Pseudomonas aeruginosa” (2010)
